Source: the supplement of paper PMC10307832

What was measured:
Experiment in all cases: relative viability (nuclei count vs DMSO), 5 days (fraction); higher = more cells survive
[1] = compound: CN1CCN(CC1)C2=CC(=C(C=C2)NC3=NC=C4C(=N3)N(C5=CC=CC=C5C(=O)N4C)C)OC [XMD8-85] + CS(=O)(=O)CCNCc1ccc(-c2ccc3ncnc(Nc4ccc(OCc5cccc(F)c5)c(Cl)c4)c3c2)o1 [Lapatinib] (partner 2 µM)
Summary of the method: (§1)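 Relative viability is defined as nuclei in treated wells over nuclei in vehicle wells. Duplicate plates were run and medians reported. Lung cancer cell lines in 1536-well plates were dosed by pin tool one day after seeding, with one drug or with a fixed anchor-drug dose plus five library-drug doses (not always all listed) in √10 steps, and nuclei were counted after 5 days.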

[2] = compound: O=C(O)C(Cc1ccccc1[N+](=O)[O-])=NNc1nc(-c2ccc(Cl)c(Cl)c2)cs1 (mixture of isomers) [4EGI-1] + Cc1nc(Nc2ncc(C(=O)Nc3c(C)cccc3Cl)s2)cc(N2CCN(CCO)CC2)n1 [Dasatinib] (partner 0.075 µM)
Summary of the method: as §1

[3] = compound: CN1CCN(CC1)C2=CC(=C(C=C2)NC3=NC=C4C(=N3)N(C5=CC=CC=C5C(=O)N4C)C)OC [XMD8-85] + CC1(C)CCC(c2ccc(Cl)cc2)=C(CN2CCN(c3ccc(C(=O)NS(=O)(=O)c4ccc(N[C@H](CCN5CCOCC5)CSc5ccccc5)c(S(=O)(=O)C(F)(F)F)c4)cc3)CC2)C1 [Navitoclax] (partner 0.5 µM)
Summary of the method: as §1

[4] = compound: O=C(O)C(Cc1ccccc1[N+](=O)[O-])=NNc1nc(-c2ccc(Cl)c(Cl)c2)cs1 (mixture of isomers) [4EGI-1] + CCNC(=O)c1noc(-c2cc(C(C)C)c(O)cc2O)c1-c1ccc(CN2CCOCC2)cc1 [Luminespib] (partner 0.01 µM)
Summary of the method: as §1

Cell Line	relative viability ([1]; first compound 0.08 µM)	relative viability ([1]; first compound 0.253 µM)	relative viability ([1]; first compound 0.8 µM)	relative viability ([1]; first compound 2.53 µM)	relative viability ([1]; first compound 8 µM)	relative viability ([2]; first compound 0.5 µM)	relative viability ([2]; first compound 1.581 µM)	relative viability ([2]; first compound 5 µM)	relative viability ([2]; first compound 15.81 µM)	relative viability ([2]; first compound 50 µM)	relative viability ([3]; first compound 0.08 µM)	relative viability ([3]; first compound 0.253 µM)	relative viability ([3]; first compound 0.8 µM)	relative viability ([3]; first compound 2.53 µM)	relative viability ([3]; first compound 8 µM)	relative viability ([4]; first compound 0.5 µM)	relative viability ([4]; first compound 1.581 µM)	relative viability ([4]; first compound 5 µM)	relative viability ([4]; first compound 15.81 µM)	relative viability ([4]; first compound 50 µM)
NCI-H2170	0.277	0.302	0.253	0.256	0.249	0.676	0.504	0.628	0.473	0.173	0.62	0.682	0.64	0.675	0.666	0.931	0.635	0.778	0.741	0.352
NCI-H2228	0.827	0.93	1.14		0.549	0.472	0.653	0.496	0.552	0.13	0.893	0.929	0.619	0.81	0.353	0.147	0.148	0.258	0.135	0.17
NCI-H2347	0.892	0.958	0.9	1.02	0.771	0.339		0.318	0.305	0.336	0.757	0.852		0.809	0.63	0.499		0.438	0.426	0.411
NCI-H2405	1.04	1.18	1.13	1.1	0.636	0.204	0.228	0.225	0.211	0.172	0.877	1.09	1.08	0.662	0.427	0.7	0.486	0.836	0.672	0.771
NCI-H3122	1.12	1.01	1.04	1.09	0.965	0.967	0.739	0.881	0.841	0.239	1.08	1.01	1.09	1.06	1.1	0.082	0.129	0.0842	0.106	0.084
PC-3 [JPC-3]	0.405	0.466	0.477	0.492	0.422	1.03	0.978	0.893		0.937	0.796	0.785	0.861	0.966	0.769	0.829	0.717	0.718		0.543
PC-14	0.32	0.398	0.276	0.38	0.268	0.342		0.297	0.0363	0.0488	1.01	1.02	1.03	0.959	0.628	0.466		0.195	0.155	0.155
RERF-LC-KJ	0.871	0.795	0.905	0.989	0.769	0.999		0.641	0.496	0.266	0.712	0.96	0.982	1.03	0.565	1.16		1.17	0.994	0.281
SK-LU-1	0.549	0.892	0.852	1.07	0.699	0.189	0.186	0.178	0.198	0.185	0.839	0.795	1.1	0.888	0.293	0.191	0.208	0.208	0.201	0.199
SK-MES-1	0.443	0.493	0.446	0.464	0.419	0.479	0.312	0.34	0.356	0.198	1.22	1.33	1.06	1.19	0.866	0.705	0.686	0.831	0.669	0.188
SW 1573	1.1	1.21	1.02	1.09	0.885	0.7	0.254	0.593	0.234	0.0967	1.13	1.02	0.896	0.801	0.545	0.227	0.198	0.248	0.168	0.116
UMC-11	0.835	0.853	1.17	0.976	0.724	0.502	0.462	0.406	0.415	0.208	0.356	0.312	0.322	0.301	0.234	1.07	1.21	0.999	0.99	0.598
